# Peptide text beside a SMILES is read from it.
# How the values were obtained:
# [1] = system: FeCl3-induced carotid artery thrombosis in mice; assay: FeCl3-induced carotid artery thrombosis model; type: in vivo, C57BL/6J mice; settings: for blood flow reduction, carotid artery: 10 min before FeCl3, n = 6
# Protocol: (§1) The C57BL/6J mice (male, 6–8 weeks old) were purchased from Beijing Vital River Laboratory Animal Technology Co., Ltd. (Beijing, China). All animal studies were performed under the approval of the Ethics Committee of the Laboratory Animal Welfare of the Kunming Institute of Zoology, Chinese Academy of Sciences (IACUC-RE-2025-03-010).
# Male C57BL/6J mice (6–8 weeks old, n = 6 per group) were randomly assigned to groups receiving intravenous injections of PBS (vehicle control), GC38 (2 or 4 mg/kg in PBS), and heparin sodium (1000 U/kg), respectively. Ten minutes post-injection, mice were anesthetized with 2% isoflurane inhalation. The right carotid artery was surgically exposed, and endothelial injury was induced by applying a 1 × 2 mm filter paper saturated with 10% (w/v) FeCl3 solution for 30 s. Real-time blood flow was monitored using a real-time laser speckle perfusion (LSP) imaging system (RWD Life Science, Shenzhen, China) with SIM BFI software (SIM BFI HR Pro, Simopto, Beijing, China). Thrombosis progression and vessel occlusion were evaluated using real-time ultrasound imaging of the region of interest at baseline (before injury), 5, and 10 min (post-injury). The perfusion unit was recorded to quantify the blood flow. Vessel occlusion was defined as a sustained reduction in perfusion units to ≤10% of baseline for at least 3 min. Data are presented as mean ± SEM.
# [2] = system: plasma clotting (coagulation pathway); assay: Plasma recalcification time (PRT); type: biochemical; settings: fresh plasma, 10 min at 37 °C, n = 3
# Protocol: Plasma recalcification time (PRT) was used to evaluate the effects of GC38 on the coagulation pathway. Fresh plasma was incubated with GC38 (0.1, 1, and 10 µM) for 10 min at 37 °C. After incubation, the plasma was mixed with an equal volume of 25 mM calcium chloride solution, and the timer was immediately started. The time required for plasma clot formation was recorded. The group treated with PBS served as the control. Each concentration was tested in triplicate, and the average value and PRT at maximum reactive velocity were reported.
# [3] = system: human embryonic kidney cells (HEK293T); assay: Cytotoxicity (CCK-8), HEK293T; type: cell-based; settings: 24 h, n = 3
# Protocol: (§2) The cytotoxicity of GC38 was evaluated in human embryonic kidney cells (HEK293T), human keratinocytes (HaCaT), and murine macrophage (RAW264.7) cell lines. The cells were from Kunming Cell Bank, Chinese Academy of Sciences. HEK293T and HaCaT cells were cultured in DMEM supplemented with 10% fetal bovine serum (FBS) and 1% penicillin-streptomycin, and RAW264.7 cells were maintained in RPMI 1640 containing 10% FBS and 1% penicillin–streptomycin, with all cell lines incubated at 37 °C under 5% CO2. For cytotoxicity assessment, cells were seeded at a density of 1 × 10^5 cells per well in 96-well plates and incubated for 12 h. […] After 24 h incubation, cell viability was determined using the CCK-8 assay (10 μL/well). Absorbance was measured at 450 nm using a multi-mode microplate reader (BioTek Synergy™ H1, Winooski, VT, USA). Untreated cells and cells treated with 10% DMSO served as negative and positive controls, respectively. Viability percentages were calculated relative to the untreated control. All experiments were conducted in triplicate, and data were expressed as mean ± SEM.
# [4] = system: stasis-induced deep vein thrombosis in mice; assay: Stasis-induced deep vein thrombosis (DVT) model; type: in vivo, C57BL/6J mice
# Protocol: as §1
# Male C57BL/6J mice (6–8 weeks old, n = 10 per group) were randomized to receive intravenous injections of PBS (vehicle control), GC38 (2 or 4 mg/kg), or heparin sodium (1000 U/kg) for the establishment of stasis-induced DVT models. […] Briefly, mice were anesthetized, and the IVC was exposed through a midline abdominal incision. […] Finally, the abdominal wall was closed carefully. At 24 h post-ligation, the IVC was resected, and thrombus formation was quantified by measuring the weight of the thrombi (n = 5). HE staining analysis of thrombus sections was performed to evaluate the extent of thrombosis (n = 5).
# [5] = system: human plasma, extrinsic clotting cascade; assay: Prothrombin time (PT); type: biochemical; settings: GC38 0.1-10 μM; human plasma 20 μL, pre-incubation 5 min at 37 °C, PT reagent; scattered light; n = 3
# Protocol: APTT and PT were measured with commercially available kits according to the manufacturer’s instructions. For APTT determination, 20 μL human plasma was pre-incubated with GC38 (0.1, 1, and 10 µM) at 37 °C for 5 min, and then 30 μL APTT reagent was added and incubated for another 5 min. Subsequently, 40 μL pre-warmed CaCl2 (37 °C) was added to initiate the intrinsic clotting cascade. The intensity of the scattered light was monitored until the signals reached saturation. For PT determination, 20 μL human plasma was pre-incubated with GC38 (0.1, 1, and 10 µM) at 37 °C for 5 min. Then, 75 μL PT reagent was added to initiate the extrinsic clotting cascade. The intensity of the scattered light was monitored until the signals reached saturation. The coagulation time (APTT or PT) was defined as the time point at which the scattered light signal reached the midpoint between the baseline and maximum amplitude. All concentrations were tested in triplicate. Results are shown as mean values, and the time at maximum reactive velocity was also reported.
# [6] = system: murine macrophage (RAW264.7); assay: Cytotoxicity (CCK-8), RAW264.7; type: cell-based; parameters: cytotoxicity RAW264.7: dose or concentration left out as unconfirmed; settings: 24 h, n = 3
# Protocol: as §2
# [7] = 50 μM, serum-free medium, CCK-8, 450 nm, relative to untreated control
smiles,measurement,setting,value
"CSCC[C@@H]1NC(=O)[C@H](CC(N)=O)NC(=O)CNC(=O)CNC(=O)[C@H](Cc2c[nH]cn2)NC(=O)[C@H](CCCNC(=N)N)NC(=O)CNC(=O)[C@@H]2CSSC[C@@H]3NC(=O)[C@H](CCCNC(=N)N)NC(=O)[C@H](C)NC(=O)CNC(=O)[C@H](CCCCN)NC(=O)CNC(=O)[C@H](CO)NC(=O)[C@@H](NC(=O)CN)CSSC[C@H](NC(=O)[C@H](CSSC[C@@H](C(=O)N[C@@H](CCC(=O)O)C(=O)N[C@@H](Cc4c[nH]c5ccccc45)C(=O)N[C@@H](CC(N)=O)C(=O)N[C@@H](Cc4c[nH]c5ccccc45)C(=O)N[C@@H](CCCCN)C(=O)N[C@H](C(=O)NCC(=O)O)[C@@H](C)O)NC(=O)[C@H](CO)NC(=O)[C@H](CCCCN)NC(=O)[C@H](Cc4ccc(O)cc4)NC1=O)NC(=O)[C@H](CCCCN)NC(=O)[C@H](CO)NC(=O)[C@@H]1CCCN1C(=O)[C@H](C)NC3=O)C(=O)N[C@@H](CO)C(=O)NCC(=O)N[C@@H](CC(C)C)C(=O)N[C@@H](CO)C(=O)N2 [GC38] (HELM PEPTIDE1{G.C.S.G.K.G.A.R.C.A.P.S.K.C.C.S.G.L.S.C.G.R.H.G.G.N.M.Y.K.S.C.E.W.N.W.K.T.G}$PEPTIDE1,PEPTIDE1,2:R3-15:R3|PEPTIDE1,PEPTIDE1,9:R3-20:R3|PEPTIDE1,PEPTIDE1,14:R3-31:R3$$$V2.0)",FeCl3-induced vascular occlusion,"[1]; 2 and 4 mg/kg i.v., Doppler flowmetry / laser speckle perfusion",alleviated FeCl3-induced vascular occlusion in mice
same,"blood flow reduction, carotid artery","[1]; GC38 2 mg/kg i.v., 5 min after 10% FeCl3",20.6%
same,"blood flow reduction, carotid artery","[1]; GC38 2 mg/kg i.v., 10 min after 10% FeCl3",44.0%
same,"blood flow reduction, carotid artery","[1]; GC38 4 mg/kg i.v., 5 min after 10% FeCl3",11.8%
same,"blood flow reduction, carotid artery","[1]; GC38 4 mg/kg i.v., 10 min after 10% FeCl3",29.4%
same,PRT clotting time versus negative control (time to Vmax),"[2]; GC38 10 μM, then 25 mM CaCl2, mean",1.4 fold
same,"clotting time in plasma (PRT), dose response","[2]; GC38 0.1-10 μM, then equal volume 25 mM CaCl2",prolonged clotting time in plasma in a dose-responsive manner
same,cell viability HEK293T,[3]; [7],greater than 95%
same,cytotoxicity HEK293T,"[3]; 0.1–50 μM, CCK-8",negligible cytotoxicity
same,reduction of thrombus wet weight versus vehicle control,"[4]; GC38 4 mg/kg i.v., 24 h after IVC ligation, n = 5 per group",64.0%
same,thrombus area (histology),"[4]; HE staining, IVC sections, 24 h after ligation, n = 5",decrease in thrombus area
same,prothrombin time (PT) effect,[5],no apparent effects on prothrombin time (PT)
same,cell viability RAW264.7,[6]; [7],greater than 95%
same,cytotoxicity RAW264.7,[6]; CCK-8,negligible cytotoxicity
